Experimental data as given in US12077503B2, “Substituted cyclic amides and their use as herbicides” (FMC CORPORATION, priority 2015, dated 2024).

Assays:
Format in all cases: in vivo
Kochia (Kochia scoparia) [1] = experiment: Test A preemergence; details: Bassia scoparia, pre-emergence, 240 h, 0 to 100 scale where 0 is no effect and 100 is complete control, read-out: Kochia plant response rating
Outline: (§1)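 In a loam soil and sand blend, planted seeds got a preemergence directed soil spray, and young plants at the one- to two-leaf stage, 2–10 cm high, got a postemergence application; ~10 d greenhouse hold; injury rated visually, 0 = none, 100 = complete control.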

[2] = test system: barnyardgrass (Echinochloa crus-galli); experiment: Test A preemergence; details: Echinochloa crus-galli, pre-emergence, 240 h, 0 to 100 scale where 0 is no effect and 100 is complete control, read-out: Barnyardgrass plant response rating
Outline: as §1

[3] = test system: giant foxtail (Setaria faberii); experiment: Test A preemergence; details: Setaria faberi, pre-emergence, 240 h, 0 to 100 scale where 0 is no effect and 100 is complete control, read-out: Foxtail, Giant plant response rating
Outline: as §1

[4] = test system: pigweed (Amaranthus retroflexus); experiment: Test A preemergence; details: Amaranthus retroflexus, pre-emergence, 240 h, 0 to 100 scale where 0 is no effect and 100 is complete control, read-out: Pigweed plant response rating
[5] = test system: ragweed (common ragweed, Ambrosia elatior); experiment: Test A preemergence; details: Ambrosia artemisiifolia, pre-emergence, 240 h, 0 to 100 scale where 0 is no effect and 100 is complete control, read-out: Ragweed plant response rating
Outline: as §1

[6] = test system: ryegrass, Italian (Italian ryegrass, Lolium multiflorum); experiment: Test A preemergence; details: Lolium multiflorum, pre-emergence, 240 h, 0 to 100 scale where 0 is no effect and 100 is complete control, read-out: Ryegrass, Italian plant response rating
Outline: as §1

[7] = test system: Galium (catchweed bedstraw, Galium aparine); experiment: Test A postemergence; details: Galium, post-emergence, 240 h
Outline: as §1

Kochia (Kochia scoparia) [8] = experiment: Test A postemergence; details: Bassia scoparia, post-emergence, 240 h
Outline: as §1

[9] = test system: barnyardgrass (Echinochloa crus-galli); experiment: Test A postemergence; details: Echinochloa crus-galli, post-emergence, 240 h
Outline: as §1

[10] = test system: blackgrass (Alopecurus myosuroides); experiment: Test A postemergence; details: Alopecurus myosuroides, post-emergence, 240 h
Outline: as §1

corn (Zea mays) = experiment: Test A postemergence; details: Zea mays, post-emergence, 240 h
Outline: as §1

[11] = test system: giant foxtail (Setaria faberii); experiment: Test A postemergence; details: Setaria faberi, post-emergence, 240 h
Outline: as §1

[12] = test system: pigweed (Amaranthus retroflexus); experiment: Test A postemergence; details: Amaranthus retroflexus, post-emergence, 240 h
Outline: as §1

[13] = test system: ragweed (common ragweed, Ambrosia elatior); experiment: Test A postemergence; details: Ambrosia artemisiifolia, post-emergence, 240 h
Outline: as §1

[14] = test system: ryegrass, Italian (Italian ryegrass, Lolium multiflorum); experiment: Test A postemergence; details: Lolium multiflorum, post-emergence, 240 h
Outline: as §1

[15] = test system: wheat (Triticum aestivum); experiment: Test A postemergence; details: Triticum aestivum, post-emergence, 240 h
Outline: as §1

[16] = test system: barnyardgrass (Echinochloa crus-galli); experiment: Test B flooded paddy test; details: Echinochloa crus-galli, 250 g ai/ha, Flood; 0 to 100 scale where 0 is no effect and 100 is complete control; read-out: Barnyardgrass plant response rating
Outline: (§2)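 Greenhouse paddy pots with 2-leaf stage plants received compound by direct addition to floodwater 3 cm deep, kept at that level. Scored visually at 13–15 d versus controls (0 no effect; 100 complete control).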

[17] = test system: ducksalad (Heteranthera limosa); experiment: Test B flooded paddy test; details: Heteranthera limosa, 250 g ai/ha, Flood; 0 to 100 scale where 0 is no effect and 100 is complete control; read-out: Ducksalad plant response rating
Outline: as §2

rice (Oryra sativa) = experiment: Test B flooded paddy test; details: Oryza sativa, 250 g ai/ha, Flood; 0 to 100 scale where 0 is no effect and 100 is complete control; read-out: Rice plant response rating
Outline: as §2

[18] = test system: sedge, umbrella (small-flower umbrella sedge, Cyperus difformis); experiment: Test B flooded paddy test; details: Cyperus difformis, 250 g ai/ha, Flood; 0 to 100 scale where 0 is no effect and 100 is complete control; read-out: Sedge, Umbrella plant response rating
Outline: as §2

[19] = 125 g ai/ha, preemergence, approx. 10 d

**Q.** Which results are given for `COCOCc1ccccc1NC(=O)[C@H]1C(=O)N(C)C[C@@H]1c1cccc(C(F)(F)F)c1` (racemic) [Compound 1161]?
**A.** pest or weed control at 31 g/ha (Kochia (Kochia scoparia) [1]; 31 g ai/ha, Preemergence): 0%; pest or weed control at 125 g/ha (Kochia (Kochia scoparia) [1]; [19]): 0%; pest or weed control at 31 g/ha ([2]; 31 g ai/ha, Preemergence): 0%; pest or weed control at 125 g/ha [2, 19]: 0%; pest or weed control at 31 g/ha ([3]; 31 g ai/ha, Preemergence): 0%; pest or weed control at 125 g/ha [3, 19]: 20%; pest or weed control at 31 g/ha ([4]; 31 g ai/ha, Preemergence): 0%; pest or weed control at 125 g/ha [4, 19]: 0%; pest or weed control at 31 g/ha ([5]; 31 g ai/ha, Preemergence): 0%; pest or weed control at 125 g/ha [5, 19]: 0%; pest or weed control at 31 g/ha ([6]; 31 g ai/ha, Preemergence): 0%; pest or weed control at 125 g/ha [6, 19]: 0%; pest or weed control at 125 g/ha ([7]; 125 g ai/ha, postemergence, visual injury vs untreated controls after approx. 10 d, 0 = no effect, 100 = complete control, read-out: Galium plant response rating (0 to 100 scale)): 0%; pest or weed control at 31 g/ha ([7]; Postemergence, 31 g ai/ha, visual injury after approx. 10 d, 0 to 100 scale, 0 no effect, 100 complete control, read-out: Plant response rating, Galium): 0%; pest or weed control at 125 g/ha (Kochia (Kochia scoparia) [8]; 125 g ai/ha, postemergence, visual injury vs untreated controls after approx. 10 d, 0 = no effect, 100 = complete control, read-out: Kochia plant response rating (0 to 100 scale)): 0%; pest or weed control at 31 g/ha (Kochia (Kochia scoparia) [8]; Postemergence, 31 g ai/ha, visual injury after approx. 10 d, 0 to 100 scale, 0 no effect, 100 complete control, read-out: Plant response rating, Kochia): 0%; pest or weed control at 125 g/ha ([9]; 125 g ai/ha, postemergence, visual injury vs untreated controls after approx. 10 d, 0 = no effect, 100 = complete control, read-out: Barnyardgrass plant response rating (0 to 100 scale)): 0%; pest or weed control at 31 g/ha ([9]; Postemergence, 31 g ai/ha, visual injury after approx. 10 d, 0 to 100 scale, 0 no effect, 100 complete control, read-out: Plant response rating, Barnyardgrass): 0%; pest or weed control at 125 g/ha ([10]; 125 g ai/ha, postemergence, visual injury vs untreated controls after approx. 10 d, 0 = no effect, 100 = complete control, read-out: Blackgrass plant response rating (0 to 100 scale)): 0%; pest or weed control at 31 g/ha ([10]; Postemergence, 31 g ai/ha, visual injury after approx. 10 d, 0 to 100 scale, 0 no effect, 100 complete control, read-out: Plant response rating, Blackgrass): 0%; plant injury at 125 g/ha (corn (Zea mays); 125 g ai/ha, postemergence, visual injury vs untreated controls after approx. 10 d, 0 = no effect, 100 = complete control, read-out: Corn plant response rating (0 to 100 scale)): 0%; Corn plant response rating (crop injury, 0 = no effect, 100 = complete kill) at 31 g/ha (corn (Zea mays); Postemergence, 31 g ai/ha, visual injury after approx. 10 d, 0 to 100 scale, 0 no effect, 100 complete control): 0%; pest or weed control at 125 g/ha ([11]; 125 g ai/ha, postemergence, visual injury vs untreated controls after approx. 10 d, 0 = no effect, 100 = complete control, read-out: Foxtail, Giant plant response rating (0 to 100 scale)): 0%; pest or weed control at 31 g/ha ([11]; Postemergence, 31 g ai/ha, visual injury after approx. 10 d, 0 to 100 scale, 0 no effect, 100 complete control, read-out: Plant response rating, Foxtail, Giant): 0%; pest or weed control at 125 g/ha ([12]; 125 g ai/ha, postemergence, visual injury vs untreated controls after approx. 10 d, 0 = no effect, 100 = complete control, read-out: Pigweed plant response rating (0 to 100 scale)): 0%; pest or weed control at 31 g/ha ([12]; Postemergence, 31 g ai/ha, visual injury after approx. 10 d, 0 to 100 scale, 0 no effect, 100 complete control, read-out: Plant response rating, Pigweed): 0%; pest or weed control at 125 g/ha ([13]; 125 g ai/ha, postemergence, visual injury vs untreated controls after approx. 10 d, 0 = no effect, 100 = complete control, read-out: Ragweed plant response rating (0 to 100 scale)): 0%; pest or weed control at 31 g/ha ([13]; Postemergence, 31 g ai/ha, visual injury after approx. 10 d, 0 to 100 scale, 0 no effect, 100 complete control, read-out: Plant response rating, Ragweed): 0%; pest or weed control at 125 g/ha ([14]; 125 g ai/ha, postemergence, visual injury vs untreated controls after approx. 10 d, 0 = no effect, 100 = complete control, read-out: Ryegrass, Italian plant response rating (0 to 100 scale)): 0%; pest or weed control at 31 g/ha ([14]; Postemergence, 31 g ai/ha, visual injury after approx. 10 d, 0 to 100 scale, 0 no effect, 100 complete control, read-out: Plant response rating, Ryegrass, Italian): 0%; plant injury at 125 g/ha ([15]; 125 g ai/ha, postemergence, visual injury vs untreated controls after approx. 10 d, 0 = no effect, 100 = complete control, read-out: Wheat plant response rating (0 to 100 scale)): 0%; plant injury at 31 g/ha ([15]; Postemergence, 31 g ai/ha, visual injury after approx. 10 d, 0 to 100 scale, 0 no effect, 100 complete control, read-out: Plant response rating, Wheat): 0%; pest or weed control at 250 g/ha [16]: 0%; pest or weed control at 250 g/ha [17]: 0%; pest or weed control at 250 g/ha (rice (Oryra sativa)): 15%; pest or weed control at 250 g/ha [18]: 0%
